For one series, the system named is HCT116 PIK3CA (+/−). The experiment in a line: Single agent proliferation assay (CellTiter-Glo, 72 h). It is filed as cell-based, human. As for the experimental part:
Cells were seeded in 96-well plates at the densities and media conditions indicated in Table 11 in McCoy's 5A containing either 10% FBS or 1% charcoal-stripped FBS (CS-FBS), and allowed to adhere overnight prior to addition of compound or vehicle control. […] The final DMSO concentration was constant at 0.1%. Test compounds were incubated with the cells for 72 h at 37° C., 5% CO2 in a humidified atmosphere. CellTiter-Glo® reagent (Promega, Madison, Wis.) was added according to manufacturer's instructions and luminescence detected using the BMG FLUOstar plate reader (BMG Labtech, Ortenberg, Germany). The average media only background value was deducted and the data analysed using a 4-parameter logistic equation in GraphPad Prism (GraphPad Software, La Jolla, Calif.).
(In ATP-based viability assays light output follows the ATP content of the culture.)

A further series has as its system HCT116 Parental. The series is described as above. It is filed as cell-based, human. As for the experimental part: Cells were seeded in 96-well plates at the densities and media conditions indicated in Table 11 in McCoy's 5A containing either 10% FBS or 1% charcoal-stripped FBS (CS-FBS), and allowed to adhere overnight prior to addition of compound or vehicle control. Compounds were prepared from DMSO stocks to give the desired final concentrations. The final DMSO concentration was constant at 0.1%. Test compounds were incubated with the cells for 72 h at 37° C., 5% CO2 in a humidified atmosphere. CellTiter-Glo® reagent (Promega, Madison, Wis.) was added according to manufacturer's instructions and luminescence detected using the BMG FLUOstar plate reader (BMG Labtech, Ortenberg, Germany). The average media only background value was deducted and the data analysed using a 4-parameter logistic equation in GraphPad Prism (GraphPad Software, La Jolla, Calif.).

Series [1] is described as follows: Toxicity (body weight, deaths, clinical signs) in the HCT116 xenograft study. It is filed as in vivo, mice. Particulars: Group 10: Paclitaxel 30 mg/kg iv qod x 5. The procedure:
Animals were weighed daily on Days 1-5, then twice per week until completion of the study. The mice were observed frequently for overt signs of any adverse, TR side effects, and clinical signs were recorded when observed. Individual BW loss was monitored as per protocol, and any animal whose weight exceeded the limits for acceptable BW loss was euthanized. Group mean BW loss also was monitored as per protocol. Dosing was to be suspended in any group that exceeded the limits for acceptable mean BW loss. If mean BW recovered, then dosing was to be resumed in that group, but at a lower dosage or less frequent dosing schedule. Acceptable toxicity for the maximum tolerated dose (MTD) was defined as a group mean BW loss of less than 20% during the study and not more than 10% TR deaths. A death was classified as TR if attributable to treatment side effects as evidenced by clinical signs and/or necropsy, or may also be classified as TR if due to unknown causes during the dosing period or within 14 days of the last dose. A death was classified as NTR if there was no evidence that death was related to treatment side effects. NTR deaths may be further characterized based on cause of death. A death was classified as NTRa if it resulted from an accident or human error. […] A death was classified as NTRu if the cause of death was unknown and there was no available evidence of death related to treatment side effects, metastasis, accident or human error, although death due to treatment side effects cannot be excluded.

The subject of series [2] is HCT116 human colorectal carcinoma xenograft. The experiment in a line: HCT116 xenograft tumor growth delay (TGD) study. It is filed as in vivo, mice. The procedure:
Female athymic nude mice (Crl:NU(Ncr)-Foxn1^nu, Charles River) were eight weeks old with a body weight (BW) range of 14.6 to 25.7 grams on Day 1 of the study. The animals were fed ad libitum water (reverse osmosis, 1 ppm Cl), and NIH 31 Modified and Irradiated Lab Diet® consisting of 18.0% crude protein, 5.0% crude fat, and 5.0% crude fiber. The mice were housed on irradiated Enrich-O'Cobs™ Laboratory Animal Bedding in static microisolators on a 12-hour light cycle at 20-22° C. (68-72° F.) and 40-60% humidity.
HCT116 human colon carcinoma cells were cultured in RPMI-1640 medium supplemented with 10% fetal bovine serum, 2 mM glutamine, 100 units/mL penicillin G sodium, 100 μg/mL streptomycin sulfate, and 25 μg/mL gentamicin. The tumor cells were grown in tissue culture flasks in a humidified incubator at 37° C., in an atmosphere of 5% CO2 and 95% air.
The HCT116 cells used for implantation were harvested during exponential growth and resuspended in 50% Matrigel (BD Biosciences): 50% phosphate buffered saline at a concentration of 2.5×10^7 cells/mL. On the day of tumor implant, each test mouse was injected subcutaneously in the right flank with 5×10^6 cells (0.2 mL cell suspension), and tumor growth was monitored as the average size approached the target range of 100 to 150 mm^3. Tumors were measured in two dimensions using calipers, and volume was calculated using the formula: Tumor Volume (mm^3)=(w^2×l)/2 where w=width and l=length, in mm, of the tumor. Tumor weight may be estimated with the assumption that 1 mg is equivalent to 1 mm^3 of tumor volume.
Ten days after tumor implantation, designated as Day 1 of the study, the animals were sorted into nine groups (Groups 1-9) each consisting of fifteen mice and one group (Group 10) consisting of ten mice.
BVD-523 doses were prepared by suspending the required amount of BVD-523 powder in 1% carboxymethyl cellulose (CMC) in deionized water (“Vehicle”). A 10 mg/mL BVD-523 stock was prepared, and was used to dose the 100 mg/kg BVD-523 group. Aliquots of the stock were diluted with the vehicle to a concentration of 5.0 mg/mL, which provided a 50 mg/kg BVD-523 dosage in a dosing volume of 10 mL/kg. The BVD-523 doses were stored at 4° C. for up to one week. The 1% CMC vehicle was used to dose the control group.
Paclitaxel (Lot CP2N10007) was purchased as a dry powder from Phyton Biotech, LLC (Fort Worth, Tex.). A paclitaxel stock solution (30 mg/mL) in 50% ethanol: 50% Cremophor EL was prepared and stored at room temperature protected from light during the dosing period. On each day of dosing, an aliquot of the paclitaxel stock was diluted with 5% dextrose in water (D5W) to yield a 3.0 mg/mL paclitaxel dosing solution in a vehicle consisting of 5% ethanol: 5% Cremophor EL: 90% D5W.
On Day 1 of the study, mice were sorted into nine groups (Group 1-9) each consisting of fifteen mice and one group (Group 10) consisting of ten mice, and dosing was initiated according to the treatment plan summarized in Table 4 below. All doses were given by oral gavage (p.o.) except paclitaxel, which was given i.v. For each agent, the dosing volume of 10 mL/kg (0.2 mL per 20 grams of BW) was scaled to the BW of the individual animal. […] For bid dosing, dosing was initiated in the afternoon of Day 1, so that one dose was given on the first day (“first day 1 dose”).
Group 1 received 1% CMC vehicle p.o. bid to end, and served as the control group for calculation of % TGD. Group 10 received paclitaxel i.v. at 30 mg/kg once every other day (qod) for five doses (qod×5), and served as the positive control for the model.
Groups 4 and 5 received 50 and 100 mg/kg BVD-523, respectively, p.o. bid to end.

The test system of a further series is parental HCT116 cells. The experiment in a line: Combination proliferation assay (Loewe/Bliss). It is filed as cell-based. Particulars: Homo sapiens, HCT-116, 2.5% serum, mean of n=4 separate combinations, read-out: IC50 (single agent, derived from combination assay plates). The procedure:
Cells were seeded into triplicate 96-well plates at the densities indicated in Table 11 in McCoy's 5A media containing 2.5% FBS and allowed to adhere overnight prior to addition of test compound or vehicle control. Combinations were tested using either a 10×8 or for the follow-up HCT116 study a 3×1 dose matrix.
Test compounds were incubated with the cells for 72 h at 37° C., 5% CO2 in a humidified atmosphere. CellTiter-Glo® reagent (Promega, Madison, Wis.) was added according to manufacturer's instructions and luminescence detected using the BMG FLUOstar plate reader (BMG Labtech, Ortenberg, Germany). The average media only background value was deducted and the data analysed.
For the 10×8 combination assays the combination interactions across the dose matrix were determined by the Loewe Additivity and Bliss independence models using Chalice™ Combination Analysis Software (Horizon Discovery Group, Cambridge, Mass.) as outlined in the user manual (available at chalice.horizondiscovery.com/chalice-portal/documentation/analyzer/home.jsp). Synergy is determined by comparing the experimentally observed level of inhibition at each combination point with the value expected for additivity, which is derived from the single-agent responses along the edges of the matrix. […]

Series [3] concerns HCT116 PIK3CA (+/−) cells. In words: Combination proliferation assay (Loewe/Bliss). The following applies: Homo sapiens, HCT-116, read-out: IC50 (single agent, derived from combination assay plates). Format: cell-based, human. The procedure: Test compounds were incubated with the cells for 72 h at 37° C., 5% CO2 in a humidified atmosphere. CellTiter-Glo® reagent (Promega, Madison, Wis.) was added according to manufacturer's instructions and luminescence detected using the BMG FLUOstar plate reader (BMG Labtech, Ortenberg, Germany). The average media only background value was deducted and the data analysed. For the 10×8 combination assays the combination interactions across the dose matrix were determined by the Loewe Additivity and Bliss independence models using ChaliceTM Combination Analysis Software (Horizon Discovery Group, Cambridge, Mass.) as outlined in the user manual (available at chalice.horizondiscovery.com/chalice-portal/documentation/analyzer/home.jsp). Synergy is determined by comparing the experimentally observed level of inhibition at each combination point with the value expected for additivity, which is derived from the single-agent responses along the edges of the matrix. Potential synergistic interactions were identified by displaying the calculated excess inhibition over that predicted as being additive across the dose matrix as a heat map, and by reporting a quantitative 'Synergy Score' based on the Loewe model. The single agent data derived from the combination assay plates were presented as dose-response curves generated in GraphPad Prism (GraphPad Software, La Jolla, Calif.) (plotted using percentage viability relative to DMSO only treated controls). […] (Cbliss is the fractional inhibition that would be expected if the combination of the two drugs were exactly additive). Cbliss values were then subtracted from the experimentally observed fractional inhibition values to give an 'excess over Bliss' value which were plotted as heat maps±SD.

Setting [4] is: Homo sapiens, HCT-116, 72 h, 1% CS-FBS.
The mark [5] stands for this setting: Homo sapiens, HCT-116, 72 h, 10% FBS.
Setting [6] is: Group 1 (vehicle) vs Group 10 (Paclitaxel 30 mg/kg iv qod x 5).
Where [7] appears, read: Group 10: Paclitaxel 30 mg/kg iv qod x 5.

This note sets out measurements from patent US11007183B2, “Cancer treatments using combinations of PI3K/Akt pathway and ERK inhibitors” (BIOMED VALLEY DISCOVERIES, INC., priority 2013, dated 2021).

A word on the IC50: it is the concentration at which inhibition is half-maximal.

“And” between values parts separate entries of the source, which are not always exact repeats. Equal entries are not always repeated.

With `Nc1cc(C(F)(F)F)c(-c2cc(N3CCOCC3)nc(N3CCOCC3)n2)cn1` [BKM120], the IC50 is 1030 nM with HCT116 PIK3CA (+/−) (setting [4]), 520 nM with HCT116 PIK3CA (+/−) (setting [5]), 530 nM with HCT116 Parental (setting [4]) and 620 nM in the series on HCT116 Parental (setting [5]).
In the case of `CS(=O)(=O)N1CCN(Cc2cc3nc(-c4cccc5[nH]ncc45)nc(N4CCOCC4)c3s2)CC1` [GDC-0941, pictilisib], the IC50 with HCT116 Parental (setting [4]) was determined as 60 nM; with HCT116 Parental (setting [5]) it was 1530 nM.
Regarding `CC(C)n1nc(-c2ccc3oc(N)nc3c2)c2c(N)ncnc21` [INK128], the IC50 in the series on HCT116 PIK3CA (+/−) (setting [4]) is 20 nM; with HCT116 PIK3CA (+/−) (setting [5]), 70 nM; with HCT116 Parental (setting [4]) it was 30 nM; in the series with HCT116 Parental (setting [5]), 50 nM.
In the case of `COc1ccc(-c2cc3c(C)nc(N)nc3n([C@H]3CC[C@H](OCCO)CC3)c2=O)cn1` [PF-04691502], the IC50 came to 1540 nM in the series on HCT116 PIK3CA (+/−) (1% CS-FBS), 420 nM in the series with HCT116 PIK3CA (+/−) (10% FBS), 70 nM with HCT116 Parental (1% CS-FBS) and 290 nM with HCT116 Parental (10% FBS).
Consider `CC(=O)O[C@H]1C(=O)[C@@]2(C)[C@H]([C@H](OC(=O)c3ccccc3)[C@]3(O)C[C@H](OC(=O)[C@H](O)[C@@H](NC(=O)c4ccccc4)c4ccccc4)C(C)=C1C3(C)C)[C@]1(OC(C)=O)CO[C@@H]1C[C@@H]2O` [Paclitaxel, reference compound], for which, in series [1], the “Deaths NTR” value was 0 and the “Deaths TR” value was 0. Further, the IC50 in the series with HCT116 PIK3CA (+/−) (setting [4]) amounted to 3 nM. The compound also displayed an IC50 in the series with HCT116 PIK3CA (+/−) (setting [5]) of 2 nM. For the same compound, in series [2] (setting [6]), the “Are survival curves diff.?” value is “Yes” and the “Logrank test Chi square” value was found to be 24.03. Moreover, in series [2] (setting [7]), the “% TGD” value is listed as 38%, the “MTV (n): number of animals on D 45 (45-day survivors)” value is “(10)”, the “MTV D 45 (median tumor volume)” value worked out at 688 mm^3 and the “Median TTE” value is 45.0 days. Moreover, in series [2] (setting [7]), the “Regressions CR” value worked out at 0; the “Regressions PR” value is 8/10 and 8; the “Regressions TFS” value was found to be 0; the “T − C” value was 12.3 days. Moreover, the IC50 in the series on HCT116 Parental (setting [4]) was 3 nM. Further, the IC50 with HCT116 Parental (setting [5]) turned out to be 2 nM.
For `O=C(Nc1ccc2[nH]nc(-c3ccncc3)c2c1)[C@@H]1CCN(CC(=O)N2CCN(c3ccc(-c4ncccn4)cc3)CC2)C1` [SCH772984], the IC50 in the series with parental HCT116 cells is 210 nM; with HCT116 PIK3CA (+/−) (setting [4]) it was 10 nM; in the series on HCT116 PIK3CA (+/−) (setting [5]) it was 80 nM; with HCT116 Parental (setting [4]), 30 nM; with HCT116 Parental (setting [5]), 140 nM; in series [3], 30 nM.
